Measured values published in paper PMC7280531, “A PROTAC peptide induces durable β-catenin degradation and suppresses Wnt-dependent intestinal cancer” (Cell Discovery, 2020).
pKd: −log10 of the molar value. Where a SMILES comes first, the peptide text is derived from it. Bridges are numbered along the chain shown (N, C = ends). [ ]: non-standard residue; d: D form. The star is where a group is joined. R8 = C=CCCCCCC[C@@](C)(N)C(=O)O; S5 = C=CCCC[C@](C)(N)C(=O)O; Cbz = O=C(OCc1ccccc1)*; Ahx = NCCCCCC(=O)O

Assays:
β-catenin [1] = biological target: T1, β-catenin (Homo sapiens, UniProt P35222); assay: β-catenin immunoblotting / immunoprecipitation in HEK293T cells
T1 sequence (P35222 1-781): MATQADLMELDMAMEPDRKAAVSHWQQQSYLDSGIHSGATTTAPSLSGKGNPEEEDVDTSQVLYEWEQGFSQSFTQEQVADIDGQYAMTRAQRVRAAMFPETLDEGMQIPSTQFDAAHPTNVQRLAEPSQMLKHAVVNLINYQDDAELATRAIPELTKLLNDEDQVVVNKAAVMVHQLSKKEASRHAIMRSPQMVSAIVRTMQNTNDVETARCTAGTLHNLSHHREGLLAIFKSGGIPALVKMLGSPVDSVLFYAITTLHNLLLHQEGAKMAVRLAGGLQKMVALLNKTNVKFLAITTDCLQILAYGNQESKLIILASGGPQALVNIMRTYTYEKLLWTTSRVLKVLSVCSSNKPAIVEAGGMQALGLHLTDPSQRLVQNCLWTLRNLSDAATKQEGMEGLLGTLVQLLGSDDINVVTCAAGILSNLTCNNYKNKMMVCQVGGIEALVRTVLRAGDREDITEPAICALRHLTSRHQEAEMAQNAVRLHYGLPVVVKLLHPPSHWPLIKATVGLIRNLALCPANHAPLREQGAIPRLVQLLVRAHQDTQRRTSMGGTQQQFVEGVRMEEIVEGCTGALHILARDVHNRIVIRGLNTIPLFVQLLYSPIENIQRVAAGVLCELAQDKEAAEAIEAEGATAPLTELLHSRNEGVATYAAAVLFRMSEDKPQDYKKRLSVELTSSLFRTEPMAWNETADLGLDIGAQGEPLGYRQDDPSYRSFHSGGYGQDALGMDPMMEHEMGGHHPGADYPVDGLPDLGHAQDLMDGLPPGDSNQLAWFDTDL
Experimental: The relative band intensity was quantified with ImageJ and normalized to GAPDH.
For immunoprecipitation, the cells were lysed in TNE lysis buffer (50 mM Tris-HCl, pH 8.0, 150 mM NaCl, 1% Nonidet P-40, and protease inhibitor cocktail). […] After 18,000×g centrifugation for 10 min, the lysates were immunoprecipitated with specific antibody and protein A-Sepharose beads and then washed the beads with TNE buffer for three times before immunoblotting.

APC^−/− organoids = assay: APC^−/− mouse intestinal organoid culture; type: cell-based; details: 10 μM MSAB or 50 μM xStAx-VHLL, 4 days
β-catenin [2] = assay: β-catenin immunoblotting in colorectal cancer cells (HCT116, SW480, LoVo); type: cell-based; details: 50 μM xStAx-VHLL, 24 h
Experimental: Relative
β-catenin protein level was quantified with ImageJ and normalized to GAPDH. Data […]
(b) LoVo cells were treated with 50 μM xStAx (xS), 50 μM
immunoblotting. (c, d) LoVo (c) and SW480 (d) cells were treated with different

[3] = cited from earlier work
Description: Peptide stapling chemistry developed by Verdine and coworkers, takes advantage of ruthenium-catalyzed metathesis to crosslink the side chains of paired anchoring residues at suitable positions, and has been successfully applied to design various peptide inhibitors with improved proteolytic stability, membrane permeability, and thus biological activity[11],[12]. Modeled after the same Axin-derived peptide motif, we and Verdine la ... || There is more space for the improvement of the working efficacy of xStAx-VHLL. The VHL peptide ligand inserted in this study consists of natural amino acids, which could be degraded once the PROTAC peptide enters the cell. Non-natural residues substitution instead of original ones, such as reported hydroxyproline to replace regular proline[31],[32], could be an effective approach to enhance the proteolytic resistance of PROTAC. It was previously reported that peptide double-stapling at both N-terminals and C-terminals rather than single stapling conferred striking protease resistance upon the ...

β-catenin (133-665) = biological target: T2, β-catenin (133-665) (Homo sapiens, UniProt P35222); assay: Isothermal titration calorimetry (ITC) of peptides with purified β-catenin
T2 sequence (P35222 133-665): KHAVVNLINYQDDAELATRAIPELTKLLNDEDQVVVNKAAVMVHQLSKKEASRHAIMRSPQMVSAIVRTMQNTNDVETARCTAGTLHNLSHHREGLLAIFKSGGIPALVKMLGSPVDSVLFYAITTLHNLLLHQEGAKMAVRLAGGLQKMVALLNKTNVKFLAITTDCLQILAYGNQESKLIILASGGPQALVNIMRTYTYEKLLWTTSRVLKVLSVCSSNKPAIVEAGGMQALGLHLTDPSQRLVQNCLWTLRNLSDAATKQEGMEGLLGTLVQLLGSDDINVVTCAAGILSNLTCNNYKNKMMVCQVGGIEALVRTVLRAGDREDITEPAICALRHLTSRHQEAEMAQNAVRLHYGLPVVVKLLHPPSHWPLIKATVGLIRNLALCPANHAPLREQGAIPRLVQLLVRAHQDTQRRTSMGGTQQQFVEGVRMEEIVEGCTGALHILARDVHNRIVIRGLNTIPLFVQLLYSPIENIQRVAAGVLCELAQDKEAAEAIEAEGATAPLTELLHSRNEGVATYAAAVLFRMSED
Experimental: The binding ability of the peptides with purified
β-catenin protein in vitro.
(a) Isothermal titration calorimetry (ITC) analysis to measure the interaction between
Biotinylated peptides were incubated with streptavidin beads and then employed to
The input β-catenin protein level
was stained with Coomassie brilliant blue. The pulled down β-catenin was
immunoblotted with anti-His antibody, and relative band intensity was quantified.

Structure (SMILES): CC(C)C[C@@H](C=O)NC(=O)[C@H](CC(C)C)NC(=O)[C@H](CC(C)C)NC(=O)OCc1ccccc1 [MG132, reference compound] (Cbz-Leu-Leu-Leu-aldehyde)
- effect of proteasome inhibitor on xStAx-VHLL-induced β-catenin degradation (β-catenin [1]; peptides 70 μM and MG132 10 μM, 16 h): blocked β-catenin degradation

Structure (SMILES): COC(=O)c1cccc(NS(=O)(=O)c2ccc(C)cc2)c1 [MSAB, reference compound]
- β-catenin protein level, MSAB versus xStAx-VHLL (β-catenin [1]; 10 μM MSAB, 50 μM xStAx-VHLL (legend: 70 μM, Wnt3a CM), 24 h): decreased β-catenin protein to a comparable level
- β-catenin level after wash-out of the drug (β-catenin [1]; MSAB 10 μM or xStAx-VHLL 70 μM 24 h, then fresh medium 24 or 48 h): restored after 24 h
- APC^−/− organoid survival, MSAB versus xStAx-VHLL (APC^−/− organoids): minimal effect
- β-catenin protein level, MSAB versus xStAx-VHLL (β-catenin [2]; HCT116 and SW480, 10 μM MSAB): decreased β-catenin protein to a comparable level
- β-catenin protein level, MSAB versus xStAx-VHLL (β-catenin [2]; LoVo, 10 μM MSAB): had no effect

Structure (SMILES): CC[C@H](C)[C@@H]1NC(=O)[C@](C)(NC(=O)[C@H](CCC(N)=O)NC(=O)[C@@H]2CCCN2C(C)=O)CCCCCCC=CCCC[C@@](C)(C(=O)N[C@@H](CCCNC(=N)N)C(=O)N[C@H](C(=O)N[C@@H](CCSC)C(=O)N[C@@H](CCCCN)C(N)=O)C(C)C)NC(=O)[C@H](C(C)C)NC(=O)[C@H](Cc2c[nH]cn2)NC(=O)[C@H](CCC(N)=O)NC(=O)[C@H](CC(=O)O)NC(=O)[C@H](CC(C)C)NC1=O [SAHPA1, reference compound] (Ac-PQ[R8]ILDQHV[S5]RVMK-NH2; staple 3-10)
- ability to penetrate the cell membrane [3]: capable of penetrating the cell membrane
- pKd (β-catenin (133-665)): 4.42

Structure (SMILES): CC[C@H](C)[C@@H]1NC(=O)[C@](C)(NC(=O)[C@H](CCC(N)=O)NC(=O)[C@@H]2CCCN2C(C)=O)CCCCCCC=CCCC[C@@](C)(C(=O)N[C@@H](CCCNC(=N)N)C(=O)N[C@H](C(=O)N[C@@H](CCSC)C(=O)N[C@@H](CCCCN)C(=O)NCCCCCC(=O)N[C@@H](C)C(=O)N[C@@H](CC(C)C)C(=O)N[C@@H](C)C(=O)N2CCC[C@H]2C(=O)N[C@@H](Cc2ccc(O)cc2)C(=O)N[C@H](C(=O)N2CCC[C@H]2C(N)=O)[C@@H](C)CC)C(C)C)NC(=O)[C@H](C(C)C)NC(=O)[C@H](Cc2c[nH]cn2)NC(=O)[C@H](CCC(N)=O)NC(=O)[C@H](CC(=O)O)NC(=O)[C@H](CC(C)C)NC1=O [SAHPA1-VHLL] (Ac-PQ[R8]ILDQHV[S5]RVMK[Ahx]ALAPYIP-NH2; staple 3-10)
- pKd (β-catenin (133-665)): 4.26

Structure (SMILES): Cc1ncsc1-c1ccc(CNC(=O)[C@@H]2C[C@@H](O)CN2C(=O)[C@@H](NC(=O)C2(C#N)CC2)C(C)(C)C)cc1 [VH-298, reference compound]
- effect of VHL ligase inhibitor on xStAx-VHLL-mediated β-catenin degradation (β-catenin [1]; Wnt3a CM, 70 μM xStAx-VHLL, 100 μM inhibitor, 24 h): blocked it
- effect of VHL ligase inhibitor on xStAx-VHLL-mediated β-catenin degradation (β-catenin [2]; LoVo, 100 μM inhibitor): blocked it

Structure (SMILES): CC[C@H](C)[C@@H]1NC(=O)[C@@](C)(NC(=O)[C@H](CCCNC(=N)N)NC(=O)[C@@H]2CCCN2C(=O)[C@H](Cc2c[nH]c3ccccc23)NC(=O)[C@H](CCCNC(=N)N)NC(=O)[C@H](CCCNC(=N)N)NC(C)=O)CCCC=CCCC[C@@](C)(C(=O)N[C@@H](Cc2c[nH]cn2)C(=O)N[C@H](C(=O)N[C@@H](CCCNC(=N)N)C(=O)N[C@@H](CCCNC(=N)N)C(=O)N[C@H](C(=O)N[C@@H](Cc2c[nH]c3ccccc23)C(=O)N[C@@H](CCCNC(=N)N)C(N)=O)C(C)C)C(C)C)NC(=O)[C@H](CC(=O)O)NC(=O)[C@H](CC(C)C)NC1=O [xStAx] (Ac-RRWPR[S5]ILD[S5]HVRRVWR-NH2; staple 6-10)
- ability to penetrate the cell membrane [3]: capable of penetrating the cell membrane
